The values that follow come from patent publication US4087548A, “Complement inhibitors” (American Cyanamid Company, priority 1976, dated 1978).

In one test the target is T1, activated human C1 (Homo sapiens, UniProt P09871).
T1 construct: C1s cleaved into disulfide-linked heavy and light chains; fluid-phase C2 consumption with C4
The test can be described thus: Test, Code 026 (C1 inhibitor). Format: biochemical. Conditions: serial two-fold dilutions assay; higher well number indicates higher activity. The text has this:
(§1) This test measures the ability of activated human C1 to destroy fluid phase human C2 in the presence of C4 and appropriate dilutions of the test compound. An active inhibitor protects C2 from C1 and C4; (ii) Test, Code 035 (C3-C9 inhibitor) -- This test determines the ability of the late components of human complement (C3-C9) to lyse EAC 142 in the presence of appropriate dilutions of the test compound. An active inhibitor protects EAC 142 from lysis by human C3-C9; (iii) Test, Code 036 (C-Shunt inhibitor) -- In this test human erythrocytes rendered fragile are lysed in autologous serum via the shunt pathway activated by cobra venom factor in the presence of appropriate dilutions of the test compound. Inhibition of the shunt pathway results in failure of lysis; (iv) Forssman Vasculitis Test -- Here, the well known complement dependent lesion, Forssman vasculitis, is produced in guinea pigs by intradermal injection of rabbit anti-Forssman antiserum. The lesion is measured in terms of diameter, edema and hemorrhage and the extent to which a combined index of these is inhibited by prior intraperitoneal injection of the test compound at 200 mg/kg is then reported, unless otherwise stated; (v) Forssman Shock Test -- Lethal shock is produced in guinea pigs by an i.v. injection of anti-Forssman antiserum and the harmonic mean death time of treated guinea pigs is compared with that of simultaneous controls; (vi) Complement Level Reduction Test -- In this test, the above dosed guinea pigs, or others, are bled for serum and the complement level is determined in undiluted serum by the capillary tube method of U.S. Pat. No. 3,876,376 and compared to undosed control guinea pigs; and (vii) Cap 50 Test -- Here, appropriate amounts of the test compound are added to a pool of guinea pig serum in vitro, after which the undiluted serum capillary tube assay referred to above is run. The concentration of compound inhibiting 50% is reported.
(§2) **Numbers represent activity in wells, a serial dilutions assay, higher
(§3) well number indicates higher activity. The serial dilutions are two-fold.

For a further test, the system named is guinea pigs. Nature of the test: Forssman Shock Test. In kind it is in vivo, guinea pig. Conditions: control = 3.15 minutes.
Source text: as §1
***Harmonic mean death time in minutes. (control = 3.15 minutes).

Test [1] concerns shunt pathway activated by cobra venom factor. The test can be described thus: Test, Code 036 (C-Shunt inhibitor), lysis of human erythrocytes in autologous serum. Format: cell-based. The conditions noted are these: serial two-fold dilutions assay; higher well number indicates higher activity.
Source text: as §1, §2, §3

Test [2] relates to late components of human complement (C3-C9). The test can be described thus: Test, Code 035 (C3-C9 inhibitor), lysis of EAC 142. In kind it is cell-based. Conditions: serial two-fold dilutions assay; higher well number indicates higher activity. How it is done:
as §1, with “An active inhibitor protects EAC 142 from lysis by human C3-C9; (iii) Test, Code 036 (C-Shunt inhibitor) -- In this test human erythrocytes rendered fragile are lysed in autologous serum via the shunt pathway activated by cobra venom factor in the presence of appropriate dilutions of the test compound. Inhibition of the shunt pathway results in failure of lysis; (iv) Forssman Vasculitis Test -- Here, the well known complement dependent lesion, Forssman vasculitis, is produced in guinea pigs by intradermal injection of rabbit anti-Forssman antiserum.” left out, “The concentration of compound inhibiting 50% is reported.” left out

Where a name gives a salt, the structure may show the parent alone.

T1 sequence (P09871 16-688): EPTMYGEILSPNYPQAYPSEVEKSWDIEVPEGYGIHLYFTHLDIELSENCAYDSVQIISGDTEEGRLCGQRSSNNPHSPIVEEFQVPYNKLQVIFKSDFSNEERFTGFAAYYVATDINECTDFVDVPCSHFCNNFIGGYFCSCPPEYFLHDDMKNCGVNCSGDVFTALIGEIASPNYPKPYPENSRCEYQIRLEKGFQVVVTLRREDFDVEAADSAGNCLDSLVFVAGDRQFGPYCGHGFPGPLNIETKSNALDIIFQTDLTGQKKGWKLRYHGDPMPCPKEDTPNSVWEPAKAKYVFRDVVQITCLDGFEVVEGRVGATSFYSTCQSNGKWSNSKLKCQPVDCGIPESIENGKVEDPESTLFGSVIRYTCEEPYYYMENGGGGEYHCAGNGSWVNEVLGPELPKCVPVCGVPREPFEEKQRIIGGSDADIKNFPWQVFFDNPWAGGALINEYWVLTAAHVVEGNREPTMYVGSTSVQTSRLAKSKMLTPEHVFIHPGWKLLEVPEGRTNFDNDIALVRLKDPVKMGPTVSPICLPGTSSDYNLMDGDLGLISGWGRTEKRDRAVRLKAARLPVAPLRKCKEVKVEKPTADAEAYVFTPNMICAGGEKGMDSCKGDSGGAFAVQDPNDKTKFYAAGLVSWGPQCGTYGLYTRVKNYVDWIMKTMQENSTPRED
T1 sequence (P00736 18-705 partner): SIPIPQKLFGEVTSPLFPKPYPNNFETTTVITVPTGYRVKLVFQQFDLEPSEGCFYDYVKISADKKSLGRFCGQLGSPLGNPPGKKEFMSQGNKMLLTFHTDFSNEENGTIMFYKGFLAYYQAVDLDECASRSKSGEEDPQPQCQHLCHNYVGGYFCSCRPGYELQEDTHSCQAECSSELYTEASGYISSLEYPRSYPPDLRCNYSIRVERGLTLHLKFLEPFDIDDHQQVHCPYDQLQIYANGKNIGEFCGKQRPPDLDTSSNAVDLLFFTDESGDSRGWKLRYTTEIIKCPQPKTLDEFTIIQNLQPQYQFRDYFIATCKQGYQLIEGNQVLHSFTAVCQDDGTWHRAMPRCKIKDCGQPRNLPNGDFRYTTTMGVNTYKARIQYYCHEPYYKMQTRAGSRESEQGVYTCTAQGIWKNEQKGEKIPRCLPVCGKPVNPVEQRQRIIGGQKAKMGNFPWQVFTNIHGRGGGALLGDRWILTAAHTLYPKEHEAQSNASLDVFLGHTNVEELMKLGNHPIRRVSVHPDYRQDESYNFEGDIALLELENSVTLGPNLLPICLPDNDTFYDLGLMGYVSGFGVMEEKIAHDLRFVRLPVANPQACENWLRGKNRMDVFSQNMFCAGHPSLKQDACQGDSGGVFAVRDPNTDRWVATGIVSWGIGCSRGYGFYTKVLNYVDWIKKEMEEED
T1 sequence (P02745 23-245 partner): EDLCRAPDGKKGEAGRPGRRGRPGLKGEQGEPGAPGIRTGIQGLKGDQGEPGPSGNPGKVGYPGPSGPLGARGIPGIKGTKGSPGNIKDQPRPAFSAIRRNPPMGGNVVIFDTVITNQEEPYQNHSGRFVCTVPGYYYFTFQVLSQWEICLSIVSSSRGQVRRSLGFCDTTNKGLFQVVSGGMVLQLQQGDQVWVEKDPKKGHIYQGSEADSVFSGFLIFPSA
T1 sequence (P02746 28-253 partner): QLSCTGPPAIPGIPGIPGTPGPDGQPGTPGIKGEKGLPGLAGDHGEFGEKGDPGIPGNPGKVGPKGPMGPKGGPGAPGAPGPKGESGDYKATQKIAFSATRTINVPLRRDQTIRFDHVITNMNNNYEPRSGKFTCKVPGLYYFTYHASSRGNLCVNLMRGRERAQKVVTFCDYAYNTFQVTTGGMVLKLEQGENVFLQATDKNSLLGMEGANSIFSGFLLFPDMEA
T1 sequence (P02747 29-245 partner): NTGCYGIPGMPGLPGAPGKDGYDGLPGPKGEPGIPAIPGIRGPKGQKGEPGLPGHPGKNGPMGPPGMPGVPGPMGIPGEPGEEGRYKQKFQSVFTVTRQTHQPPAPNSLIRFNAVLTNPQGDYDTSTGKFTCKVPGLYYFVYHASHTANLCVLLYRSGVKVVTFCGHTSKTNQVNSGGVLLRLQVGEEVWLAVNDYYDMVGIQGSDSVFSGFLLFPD

Take `Cc1ccc(C(=O)Nc2cc(S(=O)(=O)O)cc3cc(S(=O)(=O)O)cc(S(=O)(=O)O)c23)cc1[N+](=O)[O-]` [8-(3-Nitro-p-toluamido)-1,3,6-naphthalenetrisulfonic acid, trisodium salt]: the “Code 026 (activity in wells)” value on activated human C1 is recorded as “+2 wells”. In the test on guinea pigs (route not given), the “Forssman Shock, harmonic mean death time” value was 25 min.

In the case of `O=C(Nc1cc(S(=O)(=O)[O-])cc2cc(S(=O)(=O)[O-])cc(S(=O)(=O)[O-])c12)c1ccc([N+](=O)[O-])cc1.[Na+].[Na+].[Na+]` [8-p-Nitrobenzamido-1,3,6-naphthalenetrisulfonic acid, trisodium salt], the “Code 026 (activity in wells)” value on activated human C1 was “+1 wells”. For the same molecule, the “Forssman Shock, harmonic mean death time” value with guinea pigs (route not given) came out at 13 min.

With `Cc1ccc(NC(=O)Nc2cc(S(=O)(=O)O)cc3cc(S(=O)(=O)O)cc(S(=O)(=O)O)c23)cc1NC(=O)Nc1cc(NC(=O)Nc2cc(S(=O)(=O)O)cc3cc(S(=O)(=O)O)cc(S(=O)(=O)O)c23)ccc1C` [8,8'-{Ureylenebis[(4-methyl-m-phenylene)ureylene]}di-1,3,6-naphthalenetrisulfonic acid, hexasodium salt], the “Code 026 (activity in wells)” value on activated human C1 is “+4 wells”. Besides, in test [1], the “Code 036 (activity in wells)” value is “+1 wells”.

Take `O=C(Nc1cc2c(S(=O)(=O)[O-])cc(S(=O)(=O)[O-])cc2cc1S(=O)(=O)[O-])c1cccc([N+](=O)[O-])c1.[Na+].[Na+].[Na+]` [7-m-Nitrobenzamido-1,3,6-naphthalenetrisulfonic acid, trisodium salt]: the “Forssman Shock, harmonic mean death time” value with guinea pigs (route not given) was 20 min.

Take `Cc1ccc(NC(=O)Nc2cccc(C(=O)Nc3cc(S(=O)(=O)[O-])cc4cc(S(=O)(=O)[O-])cc(S(=O)(=O)[O-])c34)c2)cc1[N+](=O)[O-].[Na+].[Na+].[Na+]` [8-{m-[3-(3-Nitro-p-tolyl)ureido]benzamido}-1,3,6-naphthalenetrisulfonic acid, trisodium salt]: on activated human C1, the “Code 026 (activity in wells)” value is “+2 wells”. Besides, the “Forssman Shock, harmonic mean death time” value in the test on guinea pigs (route not given) came out at 32 min.

Consider `Cc1ccc(C(=O)Nc2cc(S(=O)(=O)O)cc3cc(S(=O)(=O)O)cc(S(=O)(=O)O)c23)cc1NC(=O)Nc1cc(C(=O)Nc2cc(S(=O)(=O)O)cc3cc(S(=O)(=O)O)cc(S(=O)(=O)O)c23)ccc1C` [8,8'-[Ureylenebis(4-methyl-m-phenylenecarbonylimino)]di-1,3,6-naphthalenetrisulfonic acid, hexasodium salt], for which the “Forssman Shock, harmonic mean death time” value in the test on guinea pigs (i.p.) came to 28 min; in the test on guinea pigs (i.v.), 46 min.

Take `Cc1cc(C(=O)Nc2cc(S(=O)(=O)O)cc3cc(S(=O)(=O)O)cc(S(=O)(=O)O)c23)ccc1N` [8-(4-Amino-m-toluamido)-1,3,6-naphthalenetrisulfonic acid, trisodium salt]: on activated human C1, the “Code 026 (activity in wells)” value was “+3 wells”. Also, the “Forssman Shock, harmonic mean death time” value in the test on guinea pigs (route not given) is 14 min.

Regarding `Cc1ccc(N)cc1C(=O)Nc1cc(S(=O)(=O)O)cc2cc(S(=O)(=O)O)cc(S(=O)(=O)O)c12` [8-(5-Amino-o-toluamido)-1,3,6-naphthalenetrisulfonic acid, trisodium salt], in the test with guinea pigs (route not given), the “Forssman Shock, harmonic mean death time” value was found to be 14 min.

For the molecule `Cc1ccc(C(=O)Nc2cc(S(=O)(=O)O)cc3cc(S(=O)(=O)O)cc(S(=O)(=O)O)c23)cc1N` [8-(3-Amino-p-toluamido)-1,3,6-naphthalenetrisulfonic acid, trisodium salt], on activated human C1, the “Code 026 (activity in wells)” value is listed as “+3 wells”. In addition, in the test on guinea pigs (route not given), the “Forssman Shock, harmonic mean death time” value came out at 14 min.

For the molecule `O=C(Nc1cccc(C(=O)Nc2cc3c(S(=O)(=O)[O-])cc(S(=O)(=O)[O-])cc3cc2S(=O)(=O)[O-])c1)Nc1cccc(C(=O)Nc2cc3c(S(=O)(=O)[O-])cc(S(=O)(=O)[O-])cc3cc2S(=O)(=O)[O-])c1.[Na+].[Na+].[Na+].[Na+].[Na+].[Na+]` [7,7'-[Ureylenebis(m-phenylenecarbonylimino)]di-1,3,6-naphthalenetrisulfonic acid, hexasodium salt], in test [2], the “Code 035 (activity in wells)” value was “+1 wells”. Further, the “Code 036 (activity in wells)” value in test [1] was “+1 wells”. Moreover, the “Forssman Shock, harmonic mean death time” value with guinea pigs (route not given) turned out to be 14 min.

For `O=C(Nc1cccc(C(=O)Nc2cc(S(=O)(=O)[O-])cc3cc(S(=O)(=O)[O-])cc(S(=O)(=O)[O-])c23)c1)Nc1cccc(C(=O)Nc2cc(S(=O)(=O)[O-])cc3cc(S(=O)(=O)[O-])cc(S(=O)(=O)[O-])c23)c1.[Na+].[Na+].[Na+].[Na+].[Na+].[Na+]` [8,8'-[Ureylenebis(m-phenylenecarbonylimino)]di-1,3,6-naphthalenetrisulfonicacid, hexasodium salt], the “Code 026 (activity in wells)” value on activated human C1 is listed as “+6 wells”. The “Code 036 (activity in wells)” value in test [1] was “+1 wells”.

As for `O=C(Nc1ccc(C(=O)Nc2cc(S(=O)(=O)[O-])cc3cc(S(=O)(=O)[O-])cc(S(=O)(=O)[O-])c23)cc1)Nc1ccc(C(=O)Nc2cc(S(=O)(=O)[O-])cc3cc(S(=O)(=O)[O-])cc(S(=O)(=O)[O-])c23)cc1.[Na+].[Na+].[Na+].[Na+].[Na+].[Na+]` [8,8'-[Ureylenebis(p-phenylenecarbonylimino)]di-1,3,6-naphthalenetrisulfonicacid, hexasodium salt], the “Code 026 (activity in wells)” value at activated human C1 is listed as “+4 wells”.

With `Cc1cc(C(=O)Nc2cc(S(=O)(=O)O)cc3cc(S(=O)(=O)O)cc(S(=O)(=O)O)c23)ccc1[N+](=O)[O-]` [8-(4-Nitro-m-toluamido)-1,3,6-naphthalenetrisulfonic acid, trisodium salt], the “Code 026 (activity in wells)” value on activated human C1 is “+1 wells”. In addition, the “Forssman Shock, harmonic mean death time” value in the test on guinea pigs (route not given) was found to be 46 min.

In the case of `Nc1ccc(C(=O)Nc2cc(S(=O)(=O)[O-])cc3cc(S(=O)(=O)[O-])cc(S(=O)(=O)[O-])c23)cc1.[Na+].[Na+].[Na+]` [8-(p-Aminobenzamido)-1,3,6-naphthalenetrisulfonic acid, trisodium salt], the “Code 026 (activity in wells)” value at activated human C1 is “+3 wells”. Moreover, the “Forssman Shock, harmonic mean death time” value in the test on guinea pigs (route not given) is 10 min.

Regarding `Cc1ccc(C(=O)Nc2cc(S(=O)(=O)O)cc3cc(S(=O)(=O)O)cc(S(=O)(=O)O)c23)cc1NC(=O)C(=O)Nc1cc(C(=O)Nc2cc(S(=O)(=O)O)cc3cc(S(=O)(=O)O)cc(S(=O)(=O)O)c23)ccc1C` [8,8'-{Oxalylbis {{[imino(4-methyl-1,3-phenylene)]carbonyl}imino}}di-1,3,6-naphthalenetrisulfonic acid, hexasodium salt], the “Code 026 (activity in wells)” value at activated human C1 was “+4 wells”. In test [1], the “Code 036 (activity in wells)” value was “+3 wells”.

Turning to `Nc1cccc(C(=O)Nc2cccc(C(=O)Nc3cc(S(=O)(=O)[O-])cc4cc(S(=O)(=O)[O-])cc(S(=O)(=O)[O-])c34)c2)c1.[Na+].[Na+].[Na+]` [8-[m-(m-Aminobenzamido)benzamido]-1,3,6-naphthalene-trisulfonic acid, trisodium salt], the “Code 026 (activity in wells)” value on activated human C1 is listed as “+2 wells”.

Turning to `Cc1ccc(NC(=O)Nc2ccc(C)c(C(=O)Nc3cc(S(=O)(=O)O)cc4cc(S(=O)(=O)O)cc(S(=O)(=O)O)c34)c2)cc1C(=O)Nc1cc(S(=O)(=O)O)cc2cc(S(=O)(=O)O)cc(S(=O)(=O)O)c12` [8,8'-[Ureylenebis(6-methyl-m-phenylenecarbonylimino)]di-1,3,6-naphthalenetrisulfonic acid, hexasodium salt], the “Code 026 (activity in wells)” value at activated human C1 is “+5 wells”. The “Code 035 (activity in wells)” value in test [2] is recorded as “+4 wells”. In the test on guinea pigs (route not given), the “Forssman Shock, harmonic mean death time” value was 11 min.

As to `Nc1cccc(C(=O)Nc2cc3c(S(=O)(=O)[O-])cc(S(=O)(=O)[O-])cc3cc2S(=O)(=O)[O-])c1.[Na+].[Na+].[Na+]` [7-(m-Aminobenzamido)-1,3,6-naphthalenetrisulfonic acid, trisodium salt], the “Forssman Shock, harmonic mean death time” value with guinea pigs (route not given) was determined as 33 min.
